Target: T1, USP5 (Homo sapiens, UniProt P45974)
T1 construct: full-length
T1 sequence (P45974 2-858): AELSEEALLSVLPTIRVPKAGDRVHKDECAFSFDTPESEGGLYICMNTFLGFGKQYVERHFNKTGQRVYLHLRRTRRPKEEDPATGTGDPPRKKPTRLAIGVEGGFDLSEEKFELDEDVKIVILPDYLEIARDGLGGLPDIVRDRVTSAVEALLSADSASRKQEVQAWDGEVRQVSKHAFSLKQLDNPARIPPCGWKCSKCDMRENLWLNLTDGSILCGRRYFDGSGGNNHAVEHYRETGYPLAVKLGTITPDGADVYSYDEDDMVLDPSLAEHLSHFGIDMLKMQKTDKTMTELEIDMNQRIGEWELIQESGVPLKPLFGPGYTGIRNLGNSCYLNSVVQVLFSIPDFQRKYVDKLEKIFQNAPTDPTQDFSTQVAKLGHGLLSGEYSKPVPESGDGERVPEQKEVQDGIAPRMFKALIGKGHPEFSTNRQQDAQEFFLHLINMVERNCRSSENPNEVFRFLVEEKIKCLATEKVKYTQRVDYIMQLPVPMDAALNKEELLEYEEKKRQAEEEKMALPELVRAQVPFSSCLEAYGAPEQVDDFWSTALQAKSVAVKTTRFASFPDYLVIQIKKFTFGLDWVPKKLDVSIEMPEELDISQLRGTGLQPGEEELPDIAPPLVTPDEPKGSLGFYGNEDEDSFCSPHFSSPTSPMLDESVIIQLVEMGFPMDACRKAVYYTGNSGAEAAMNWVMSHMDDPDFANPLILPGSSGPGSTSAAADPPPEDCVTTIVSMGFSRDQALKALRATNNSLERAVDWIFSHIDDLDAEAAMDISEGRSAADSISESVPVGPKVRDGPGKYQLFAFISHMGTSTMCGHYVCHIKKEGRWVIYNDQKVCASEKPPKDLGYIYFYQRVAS
Assay: microscale thermophoresis with purified labelled USP5
Type: binding

Which Kd does the source give for `O=C(CCCCCCC(=O)Nc1ccccc1)NO` [SAHA] here?
Its Kd is 2760 nM.

Reference: publication PMC8016666, “A novel combination therapy targeting ubiquitin-specific protease 5 in MYCN-driven neuroblastoma” (Oncogene, 2021)
